Experimental data: article PMC5078025, “Necrosis-inducing peptide has the beneficial effect on killing tumor cells through neuropilin (NRP-1) targeting” (Oncotarget, 2016)
Bridge positions count the residues as written; N and C are the ends. Ends that are not written are not given here.

Test system: subcutaneous CT26 colorectal carcinoma tumors
Assay: Tumor volume in mice bearing subcutaneous CT26 tumors
Type: in vivo
Conditions: BALB/c mice bearing CT26 tumor, i.v. of 1 mM TU:MTDs twice or three times, n = 3, observed until 9 days
Procedure: Figure 1 Identification of TU17:MTD as a tumor targeting peptide (A) Schematic diagram of the fusion peptides consisting of the tumor-homing motif, linker, and mitochondrial targeting domain (MTD). (B) Tumors were generated over 2 weeks after s.c. injection of CT26 cells into the backs of BALB/c mice. […] Arrows indicate the points of peptide injection. P values < 0.02 (control group vs TU17:MTD at day 5, 6, 7, 8, and 9) (C) HCT116, HeLa, A549, MCF-7, PC3, and BJAB cells were treated with TU17:MTD (0 ~ 20 μM) for 30 minutes, and cell viability was monitored using XTT assays. *P < 0.05 (D) Primary splenocytes and macrophages were treated with TU17:MTD (0 ~ 20 μM) for 30 minutes, and cell viability was monitored by XTT assay. *P < 0.05 (E) CT26 cells were treated with R8:MTD, TU17:MTD, TU17-2:MTD or TU17:MTD^4A (0 ~ 40 μM) for 4 hours, and cell viability was monitored by XTT assay. Results in C to E are expressed as means ± SD (triplicates), and are representative of at least two independent experiments. P values are for experimental groups versus controls and were calculated using Dunnett's t-test. *P < 0.05.
Figure 3 Effects of TU17:MTD, TU17-2:MTD, and TU17-2:D(KLAKLAK)2 on tumor tissues in vivo (A) Tumors were generated over 7~8 days after s.c. injection of CT26 cells into the backs of BALB/c mice. […]

Row | Sequence | Toxicity/Tumor growth
1 | CNGRCVSGCAGRCGGKLLNLISKLF [TU2:MTD, MTD peptide fused with tumor-homing motif, linear] | NR (NR; no regression)
2 | KLLNLISKLFCRGDKRLYDC (disulfide 11-20 (inferred)) [TU11:MTD] | Toxic
